Test results as given in patent publication US20160039742A1, “EXTRACTION OF TRAMADOL FROM NAUCLEA LATIFOLIA SMITH” ([…] FOURIER - GRENOBLE 1, priority 2013, published 2016).
Marks after values point to notes of the source that are not given here.

Legend:
[1] = tested on: glutamate-induced nociception in mice; assay: Glutamate-induced nociception; assay type: in vivo
Protocol: (§1) Experiments in mice were performed on C57BL/6 male mice (Janvier, Le-Genest-St-Isle, France) weighting 26-35 g, housed in individual cages with food and water ad libitum and kept in a 12 hours/12 hours light-dark cycle. All animal experimentations were carried out in accordance with the rules of the European Committee Council Directive of Nov. 24, 1986 (86/609/EEC) and all procedures were approved by the local department of the veterinarian services for the use and care of animals (agreement #380612). All efforts were made to minimize animal suffering and reduce the number of animals used in each series of experiments.
Animals were treated with the purified tramadol isolated from Nauclea Latifolia (8, 16 or 32 mg/kg, p.o.), dipyrone (60 mg/kg, p.o.) or 0.9% NaCl (p.o.) 1 hour before test. A volume of 20 μl of glutamate (30 μmol/paw) was injected intraplantarly in the ventral surface of the right hind paw. Animals were observed individually for 15 min following glutamate injection. The amount of time they spent licking the injected paw was recorded with a chronometer and was considered as indicative of nociception. Data were analyzed by two-way Anova followed by Tukey's (HSD) multi-comparison test.

[2] = tested on: hotplate-induced pain in mice; assay: Hotplate test; assay type: in vivo
Protocol: as §1
The apparatus consisted of a water bath in which was placed a metallic cylinder (14 cm diameter×10 cm height). The hot plate was maintained at 55±0.5° C. Each mouse (six per group) acted as its own control. One hour before treatment, the reaction time of each mouse (liking of the forepaws or jumping response) was measured twice with a 10 min interval. The average of the two readings was obtained as the initial reaction time.
(§2) The protection percentage was calculated as the ratio (reaction time following tramadol administration−initial reaction time): initial reaction time.

[3] = tested on: tail flick response in mice after immersion in 55° C. water bath; assay: Tail-flick test; assay type: in vivo
Protocol: as §1
The tail-flick test was carried out according to the method described by D'Amour and Smith. This involved immersing extreme 3 cm of the mice's tail in water bath containing water at a temperature of 55±0.5° C. […] The reaction time was recorded with a stopwatch. […] The reaction time of mice was taken at intervals of 15, 30 and 60 min after a latency period of 1 hour following the administration of the decoction and drugs.
as §2

[4] = tested on: acetic acid-induced abdominal constrictions in mice; assay: Acetic acid induced abdominal constriction (writhing) test; assay type: in vivo
Protocol: as §1
One hour after oral administration of these substances, each animal was injected i.p. with 0.6% acetic acid in a volume of 10 ml/kg body weight. After acetic acid injection, the number of stretching or writhing responses per animal was recorded during 30 min after a latency period of 5 min. Inhibition was expressed in percentage.
Data were analyzed by two-way Anova followed by Tukey's (HSD) multi-comparison test.

formalin-induced pain = assay: Formaline-induced nociception (formalin test); assay type: in vivo, mice; conditions: 32 mg/kg p.o.
Protocol: as §1
The formalin test was carried out as described by Hunskaar and Hole (1987) with slight modifications. The negative control was treated with 0.9% NaCl. […] Other groups of mice were treated with methanolic fractions of Nauclea Latifolia (16, 40 or 80 mg/kg, p.o.), or purified tramadol isolated from Nauclea Latifolia (8, 16 and 32 mg/kg, p.o.). Pain was induced by injecting 50 μl of 2.5% formalin (40% formaldehyde in distilled water) in the right hind paw pad. […] The amount of time spent licking and biting the injected paw was indicative of pain and was recorded during the first 0-5 min (first phase), followed by the 15-30 min period (second phase). Data were analyzed by two-way Anova followed by Tukey's (HSD) multi-comparison test.

SMILES: Cc1c(N(C)CS(=O)(=O)[O-])c(=O)n(-c2ccccc2)n1C.[Na+] [dipyrone, reference compound]
- inhibition of glutamate-induced nociception ([1]; dipyrone (60 mg/kg, p.o.)): 70.30%

SMILES: CN1CC[C@]23c4c5ccc(O)c4O[C@H]2[C@@H](O)C=C[C@H]3[C@H]1C5 [Morphine, reference compound]
- Protection against thermal nociception (%) ([2]; 5 mg/kg s.c., 0.5 hr): 7.4%
- Protection against thermal nociception (%) ([2]; 5 mg/kg s.c., 1 hr): 44.4** %
- Protection against thermal nociception (%) ([2]; 5 mg/kg s.c., 2 hrs): 46.8** %
- Protection against thermal nociception (%) ([2]; 5 mg/kg s.c., 3 hrs): 40.4** %
- Protection against thermal nociception (%) ([2]; 5 mg/kg s.c., 4 hrs): 43.6** %
- Protection against thermal nociception (%) ([2]; 5 mg/kg s.c., 5 hrs): 24.6* %
- Protection against thermal nociception (%) ([2]; 5 mg/kg s.c., 6 hrs): 17.1%
- Protection agains thermal nociception (%) ([3]; 5 mg/kg s.c., 15 min): 27.3%
- Protection agains thermal nociception (%) ([3]; 5 mg/kg s.c., 30 min): 62.1*** %
- Protection agains thermal nociception (%) ([3]; 5 mg/kg s.c., 60 min): 77.8*** %

SMILES: CC(=O)Oc1ccccc1C(=O)O [Aspirin, reference compound]
- Acetic acid-induced writhing inhibition (%) ([4]; 150 mg/kg p.o.): 52.9%
- Protection against thermal nociception (%) ([2]; 150 mg/kg p.o., 0.5 hr): 1.7%
- Protection against thermal nociception (%) ([2]; 150 mg/kg p.o., 1 hr): 35.5* %
- Protection against thermal nociception (%) ([2]; 150 mg/kg p.o., 2 hrs): 2.2* %
- Protection against thermal nociception (%) ([2]; 150 mg/kg p.o., 3 hrs): 39.5* %
- Protection against thermal nociception (%) ([2]; 150 mg/kg p.o., 4 hrs): 8.5%
- Protection against thermal nociception (%) ([2]; 150 mg/kg p.o., 5 hrs): 10.6%
- Protection against thermal nociception (%) ([2]; 150 mg/kg p.o., 6 hrs): 3.5%
- Protection agains thermal nociception (%) ([3]; 150 mg/kg p.o., 15 min): 6.4%
- Protection agains thermal nociception (%) ([3]; 150 mg/kg p.o., 30 min): 9.5%
- Protection agains thermal nociception (%) ([3]; 150 mg/kg p.o., 60 min): 7.1%

SMILES: COc1cccc([C@]2(O)CCCC[C@H]2CN(C)C)c1 (racemic) [F27 of N. latifolia, (±)-cis-2-dimethylaminomethyl-1-(3-methoxyphenyl)cyclohexanol]
- counter effect of naloxone on acetic acid-induced writhing ([4]; FIG. 4): absence of counter effect of naloxone
- bioactivity of HPLC fractions in the writhing test ([4]; HPLC fractions of root bark extract, writhing test): peak of activity
- mean ID50 (95% confidence limits), acetic acid-induced abdominal constrictions ([4]; oral administration): 14.13 (5.53-41.88) mg/kg
- blockade of pain emanating from inflammation, second phase (15-30 min) of formalin test (formalin-induced pain): 31.74%
- neurogenic-induced pain blockade, first phase (0-5 min) of formalin test (formalin-induced pain): 64.07%
- Protection against thermal nociception (%) ([2]; 8 mg/kg p.o., 0.5 hr): −2.2%
- Protection against thermal nociception (%) ([2]; 8 mg/kg p.o., 1 hr): 22.9%
- Protection against thermal nociception (%) ([2]; 8 mg/kg p.o., 2 hrs): 20.2* %
- Protection against thermal nociception (%) ([2]; 8 mg/kg p.o., 3 hrs): 50.6** %
- Protection against thermal nociception (%) ([2]; 8 mg/kg p.o., 4 hrs): 4.6%
- Protection against thermal nociception (%) ([2]; 8 mg/kg p.o., 5 hrs): −0.2%
- Protection against thermal nociception (%) ([2]; 8 mg/kg p.o., 6 hrs): −0.5%
- Protection against thermal nociception (%) ([2]; 16 mg/kg p.o., 0.5 hr): 1.9%
- Protection against thermal nociception (%) ([2]; 16 mg/kg p.o., 1 hr): 27.0* %
- Protection against thermal nociception (%) ([2]; 16 mg/kg p.o., 2 hrs): 21.3* %
- Protection against thermal nociception (%) ([2]; 16 mg/kg p.o., 3 hrs): 52.4** %
- Protection against thermal nociception (%) ([2]; 16 mg/kg p.o., 4 hrs): 6.5%
- Protection against thermal nociception (%) ([2]; 16 mg/kg p.o., 5 hrs): −2.0%
- Protection against thermal nociception (%) ([2]; 16 mg/kg p.o., 6 hrs): 4.6%
- Protection against thermal nociception (%) ([2]; 32 mg/kg p.o., 0.5 hr): 1.9%
- Protection against thermal nociception (%) ([2]; 32 mg/kg p.o., 1 hr): 45.2** %
- Protection against thermal nociception (%) ([2]; 32 mg/kg p.o., 2 hrs): 50.9** %
- Protection against thermal nociception (%) ([2]; 32 mg/kg p.o., 3 hrs): 71.9*** %
- Protection against thermal nociception (%) ([2]; 32 mg/kg p.o., 4 hrs): 25.2* %
- Protection against thermal nociception (%) ([2]; 32 mg/kg p.o., 5 hrs): 21.3* %
- Protection against thermal nociception (%) ([2]; 32 mg/kg p.o., 6 hrs): 27.8* %
- time at which increase in latency response reached maximal level ([2]; 32 mg/kg, oral administration): 3 h
- effect of naloxone on antinociceptive effect in hot plate assay ([2]; mouse, in vivo): Naloxone antagonized antinociceptive effect
- Protection agains thermal nociception (%) ([3]; 8 mg/kg p.o., 15 min): 7.7%
- Protection agains thermal nociception (%) ([3]; 8 mg/kg p.o., 30 min): 14.4* %
- Protection agains thermal nociception (%) ([3]; 8 mg/kg p.o., 60 min): 21.4* %
- Protection agains thermal nociception (%) ([3]; 16 mg/kg p.o., 15 min): 5.6%
- Protection agains thermal nociception (%) ([3]; 16 mg/kg p.o., 30 min): 34.3** %
- Protection agains thermal nociception (%) ([3]; 16 mg/kg p.o., 60 min): 42.9*** %
- reduction of painful sensation due to tail immersion in warm water ([3]; 32 mg/kg oral, after a latency period of 30 min): 63.05%
- Protection agains thermal nociception (%) ([3]; 32 mg/kg p.o., 15 min): 18.7%
- Protection agains thermal nociception (%) ([3]; 32 mg/kg p.o., 30 min): 63.0*** %
- dose dependence of reduction of painful sensation in tail immersion ([3]; mouse, in vivo): dose-dependent
- effect of naloxone on analgesic activity in tail-flick test ([3]; mouse, in vivo): blocked by naloxone
- antinociception in glutamate-induced nociception ([1]; 8, 16 or 32 mg/kg, p.o.): marked and dose-related antinociception
- mean ID50 (95% confidence limits), glutamate-induced nociception ([1]; p.o., 1 hour before test): 21.17 (6.49-47.23)
